# Columns and labels:
# [1] = tested on: naive CD62LhiCD4+CD25− LN T cells; experiment: Foxp3 induction in newly activated naive CD4 T cells (intracellular staining); format: cell-based, mouse; settings: for percentage of cells expressing Foxp3: added 18 hours after activation with TCR signal deprivation, read within 24-48 hours; for Foxp3 expression in control cultures, TCR signal deprived cultures subtracted: serum free AIM-V medium, without anti TGFβ and SB431542, 24-48 hours / 2 days; for effect on Foxp3 expression (in words): newly activated T cells deprived of TCR signals
# Method: Mouse strains, cell sorting and culture Animal work was carried out according the Animals (Scientific Procedures) Act, UK. Lymph node (LN) cells were stained, analysed and sorted by flow cytometry as described (Cobb et al 2005 J. Exp. Med. 201: 1367-1373). Intracellular staining for Foxp3 protein was done as advised by the manufacturers (eBiosciences.com). The phosphorylation syatus of S6 ribosomal protein was determined using anti pS6 Ser235/236 (Cellsignaling cat.no. 2211, http://www.cellsignal.com) using the eBioscience Foxp3 staining kit and anti rabbit IgG-FITC or IgG-Cy5 (Jackson Immunoresearch). For induction of Foxp3 expression, sorted LN CD4+ CD25− CD62Lhi T cells were cultured at 1-3×10^6/ml with plate bound anti-TCRβ. […] After 18 hours the cells were either left in place for continued TCR stimulation or moved to uncoated wells with the indicated additives. To assess regulatory function, CD4 T cells cultured as indicated were titrated into round bottom wells containing either 1×10^5 CFSE labeled total LN cells or 5×10^4 CFSE labeled CD4^+ CD25^− T cells and 1×10^5 mitomycin-C treated (25 μg/ml, 20 min, 37° C.) T cell depleted splenocytes with the indicated concentrations of anti CD3 (2C11, Pharmingen). CD4 T cell CFSE profiles were recorded between 48 and 72 hours later.
# Mice, Cell Sorting and Culture. Animal work was carried out according to the Animals (Scientific Procedures) Act, UK. Lymph node (LN) cells or thymocytes from wild type were stained, analysed and sorted by flow cytometry as described (Thompson et al., 2007 Immunity VoI 26 pp 335-344) from wild type (C57BL/6, BALB/c or C57BL/6×129) mice or from Rag1 deficient H2^b AND TCR transgenic mice. Antigen presenting cells were derived from bone marrow in the presence of GM-CSF and incubated with antigenic peptide. Intracellular staining for Foxp3 protein was done as advised by the manufacturers (eBiosciences.com). The phosphorylation status of S6 ribosomal protein was determined using anti pS6 Ser235/236 (Cell Signaling cat.no. 2211, http://www.cellsignal.com) using the eBioscience Foxp3 staining kit and anti rabbit IgG-FITC or IgG-Cy5 (Jackson ImmunoResearch). […] After 18 hours the cells were either left in place for continued TCR stimulation or moved to uncoated wells with the indicated additives. To assess regulatory function, CD4 T cells cultured as indicated were titrated into round bottom wells containing either 1×10^5 CFSE labeled total LN cells or 5×10^4 CFSE labeled CD4^+CD25^− T cells and 1×10^5 mitomycin-C treated (25 μg/ml, 20 min, 37° C.) T cell depleted splenocytes with the indicated concentrations of anti CD3 (2C11, Pharmingen). CD4 T cell CFSE profiles were recorded between 48 and 72 hours later.
# PI4KIIα = PI4KIIα (Homo sapiens, UniProt Q9BTU6); settings: unit inferred; read-out: Specificity for PI4KIIα (IC50 determined in vitro); cited from earlier work
# ATR = ATR (Homo sapiens, UniProt Q13535); settings: unit inferred; read-out: Specificity for ATR (IC50 determined in vitro); cited from earlier work
# PI4KIIIα = PI4KIIIα (Homo sapiens, UniProt P42356); settings: unit inferred; read-out: Specificity for PI4KIIIα (IC50 determined in vitro); cited from earlier work
# PI4P5KIα [2] = settings: second PI4P5KIα line; unit inferred; read-out: Specificity for PI4P5KIα (IC50 determined in vitro); cited from earlier work
# PI3KC2α = PI3KC2α (Homo sapiens, UniProt O00443); settings: unit inferred; read-out: Specificity for PI3KC2α (IC50 determined in vitro); cited from earlier work
# ATM = ATM (Homo sapiens, UniProt Q13315); settings: unit inferred; read-out: Specificity for ATM (IC50 determined in vitro); cited from earlier work
# PI4KIIIβ = PI4KIIIβ (Homo sapiens, UniProt Q9UBF8); settings: unit inferred; read-out: Specificity for PI4KIIIβ (IC50 determined in vitro); cited from earlier work
# PI4P5KIα [3] = target: PI4P5KIα (Homo sapiens, UniProt Q99755); settings: first PI4P5KIα line; unit inferred; read-out: Specificity for PI4P5KIα (IC50 determined in vitro); cited from earlier work
# DNA-PK = DNA-PK (Homo sapiens, UniProt P78527); settings: unit inferred; read-out: Specificity for DNA-PK (IC50 determined in vitro); cited from earlier work
# PI3KC2β = PI3KC2β (Homo sapiens, UniProt O00750); settings: unit inferred; read-out: Specificity for PI3KC2β (IC50 determined in vitro); cited from earlier work
# mTORC1 = mTORC1 (Homo sapiens, UniProt P42345); settings: unit inferred; read-out: Specificity for mTORC1 (IC50 determined in vitro); cited from earlier work
# PI5P4KIIβ = target: T1, PI5P4KIIβ (Homo sapiens, UniProt P78356); settings: unit inferred; read-out: Specificity for PI5P4KIIβ (IC50 determined in vitro); cited from earlier work
# T1 sequence (P78356 1-416): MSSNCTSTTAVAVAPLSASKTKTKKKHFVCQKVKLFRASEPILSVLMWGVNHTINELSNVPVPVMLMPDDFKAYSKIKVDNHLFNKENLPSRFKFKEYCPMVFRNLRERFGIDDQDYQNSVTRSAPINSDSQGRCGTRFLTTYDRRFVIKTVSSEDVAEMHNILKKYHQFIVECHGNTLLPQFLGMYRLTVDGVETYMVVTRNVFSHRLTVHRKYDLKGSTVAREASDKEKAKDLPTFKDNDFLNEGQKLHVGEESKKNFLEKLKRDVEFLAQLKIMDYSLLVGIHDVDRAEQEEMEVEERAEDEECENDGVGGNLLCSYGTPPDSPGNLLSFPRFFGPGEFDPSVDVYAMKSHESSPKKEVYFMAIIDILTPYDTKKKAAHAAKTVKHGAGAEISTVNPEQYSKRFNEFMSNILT
# [4] = serum free AIM-V, anti TGFβ 3 μg/ml, SB431542 20 μM
# Chain of PI3KC2α (O00443 whole entry, species assumed): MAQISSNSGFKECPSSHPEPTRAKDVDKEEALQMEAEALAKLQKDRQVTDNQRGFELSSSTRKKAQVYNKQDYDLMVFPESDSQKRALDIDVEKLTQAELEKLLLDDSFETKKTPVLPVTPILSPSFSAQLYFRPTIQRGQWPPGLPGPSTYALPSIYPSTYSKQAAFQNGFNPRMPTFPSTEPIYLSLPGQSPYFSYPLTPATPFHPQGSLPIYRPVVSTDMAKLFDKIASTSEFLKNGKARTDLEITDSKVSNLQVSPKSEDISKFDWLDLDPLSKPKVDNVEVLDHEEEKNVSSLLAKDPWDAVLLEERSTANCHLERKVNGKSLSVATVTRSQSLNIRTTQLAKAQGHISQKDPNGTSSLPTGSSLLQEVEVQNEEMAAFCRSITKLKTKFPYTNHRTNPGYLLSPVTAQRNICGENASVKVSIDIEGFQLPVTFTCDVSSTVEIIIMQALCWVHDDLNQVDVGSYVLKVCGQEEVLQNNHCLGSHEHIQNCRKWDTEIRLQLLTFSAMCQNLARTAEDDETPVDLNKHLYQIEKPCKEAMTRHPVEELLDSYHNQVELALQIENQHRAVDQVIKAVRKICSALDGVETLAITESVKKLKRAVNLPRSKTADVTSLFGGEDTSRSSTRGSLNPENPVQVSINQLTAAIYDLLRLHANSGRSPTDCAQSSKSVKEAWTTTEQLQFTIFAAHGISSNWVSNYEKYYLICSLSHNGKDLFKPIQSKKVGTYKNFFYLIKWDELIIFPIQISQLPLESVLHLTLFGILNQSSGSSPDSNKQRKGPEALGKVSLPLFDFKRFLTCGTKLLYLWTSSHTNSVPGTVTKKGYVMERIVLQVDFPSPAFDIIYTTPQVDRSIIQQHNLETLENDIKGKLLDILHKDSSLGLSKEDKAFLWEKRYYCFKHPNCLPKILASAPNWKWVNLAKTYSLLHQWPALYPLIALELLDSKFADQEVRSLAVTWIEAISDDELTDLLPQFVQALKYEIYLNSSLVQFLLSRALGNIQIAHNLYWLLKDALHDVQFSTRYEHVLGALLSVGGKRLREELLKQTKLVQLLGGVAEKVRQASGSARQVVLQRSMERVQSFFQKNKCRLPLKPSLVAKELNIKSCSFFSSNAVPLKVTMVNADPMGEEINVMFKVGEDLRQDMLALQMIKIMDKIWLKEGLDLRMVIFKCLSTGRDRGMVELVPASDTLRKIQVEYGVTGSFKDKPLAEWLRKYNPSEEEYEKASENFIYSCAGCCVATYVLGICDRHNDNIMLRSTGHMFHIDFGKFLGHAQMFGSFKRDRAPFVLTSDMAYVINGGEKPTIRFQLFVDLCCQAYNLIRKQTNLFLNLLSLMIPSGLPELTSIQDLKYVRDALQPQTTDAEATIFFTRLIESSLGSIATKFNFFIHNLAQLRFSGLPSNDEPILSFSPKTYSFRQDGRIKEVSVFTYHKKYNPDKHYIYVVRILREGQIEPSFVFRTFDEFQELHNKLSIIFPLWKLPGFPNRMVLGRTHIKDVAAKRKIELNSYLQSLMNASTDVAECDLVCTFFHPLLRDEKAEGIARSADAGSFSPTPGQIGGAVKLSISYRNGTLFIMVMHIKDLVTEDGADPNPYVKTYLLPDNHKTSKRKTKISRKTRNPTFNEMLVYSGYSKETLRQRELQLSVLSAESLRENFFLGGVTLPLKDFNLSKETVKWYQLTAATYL
# Chain of PI4KIIIα (P42356 whole entry): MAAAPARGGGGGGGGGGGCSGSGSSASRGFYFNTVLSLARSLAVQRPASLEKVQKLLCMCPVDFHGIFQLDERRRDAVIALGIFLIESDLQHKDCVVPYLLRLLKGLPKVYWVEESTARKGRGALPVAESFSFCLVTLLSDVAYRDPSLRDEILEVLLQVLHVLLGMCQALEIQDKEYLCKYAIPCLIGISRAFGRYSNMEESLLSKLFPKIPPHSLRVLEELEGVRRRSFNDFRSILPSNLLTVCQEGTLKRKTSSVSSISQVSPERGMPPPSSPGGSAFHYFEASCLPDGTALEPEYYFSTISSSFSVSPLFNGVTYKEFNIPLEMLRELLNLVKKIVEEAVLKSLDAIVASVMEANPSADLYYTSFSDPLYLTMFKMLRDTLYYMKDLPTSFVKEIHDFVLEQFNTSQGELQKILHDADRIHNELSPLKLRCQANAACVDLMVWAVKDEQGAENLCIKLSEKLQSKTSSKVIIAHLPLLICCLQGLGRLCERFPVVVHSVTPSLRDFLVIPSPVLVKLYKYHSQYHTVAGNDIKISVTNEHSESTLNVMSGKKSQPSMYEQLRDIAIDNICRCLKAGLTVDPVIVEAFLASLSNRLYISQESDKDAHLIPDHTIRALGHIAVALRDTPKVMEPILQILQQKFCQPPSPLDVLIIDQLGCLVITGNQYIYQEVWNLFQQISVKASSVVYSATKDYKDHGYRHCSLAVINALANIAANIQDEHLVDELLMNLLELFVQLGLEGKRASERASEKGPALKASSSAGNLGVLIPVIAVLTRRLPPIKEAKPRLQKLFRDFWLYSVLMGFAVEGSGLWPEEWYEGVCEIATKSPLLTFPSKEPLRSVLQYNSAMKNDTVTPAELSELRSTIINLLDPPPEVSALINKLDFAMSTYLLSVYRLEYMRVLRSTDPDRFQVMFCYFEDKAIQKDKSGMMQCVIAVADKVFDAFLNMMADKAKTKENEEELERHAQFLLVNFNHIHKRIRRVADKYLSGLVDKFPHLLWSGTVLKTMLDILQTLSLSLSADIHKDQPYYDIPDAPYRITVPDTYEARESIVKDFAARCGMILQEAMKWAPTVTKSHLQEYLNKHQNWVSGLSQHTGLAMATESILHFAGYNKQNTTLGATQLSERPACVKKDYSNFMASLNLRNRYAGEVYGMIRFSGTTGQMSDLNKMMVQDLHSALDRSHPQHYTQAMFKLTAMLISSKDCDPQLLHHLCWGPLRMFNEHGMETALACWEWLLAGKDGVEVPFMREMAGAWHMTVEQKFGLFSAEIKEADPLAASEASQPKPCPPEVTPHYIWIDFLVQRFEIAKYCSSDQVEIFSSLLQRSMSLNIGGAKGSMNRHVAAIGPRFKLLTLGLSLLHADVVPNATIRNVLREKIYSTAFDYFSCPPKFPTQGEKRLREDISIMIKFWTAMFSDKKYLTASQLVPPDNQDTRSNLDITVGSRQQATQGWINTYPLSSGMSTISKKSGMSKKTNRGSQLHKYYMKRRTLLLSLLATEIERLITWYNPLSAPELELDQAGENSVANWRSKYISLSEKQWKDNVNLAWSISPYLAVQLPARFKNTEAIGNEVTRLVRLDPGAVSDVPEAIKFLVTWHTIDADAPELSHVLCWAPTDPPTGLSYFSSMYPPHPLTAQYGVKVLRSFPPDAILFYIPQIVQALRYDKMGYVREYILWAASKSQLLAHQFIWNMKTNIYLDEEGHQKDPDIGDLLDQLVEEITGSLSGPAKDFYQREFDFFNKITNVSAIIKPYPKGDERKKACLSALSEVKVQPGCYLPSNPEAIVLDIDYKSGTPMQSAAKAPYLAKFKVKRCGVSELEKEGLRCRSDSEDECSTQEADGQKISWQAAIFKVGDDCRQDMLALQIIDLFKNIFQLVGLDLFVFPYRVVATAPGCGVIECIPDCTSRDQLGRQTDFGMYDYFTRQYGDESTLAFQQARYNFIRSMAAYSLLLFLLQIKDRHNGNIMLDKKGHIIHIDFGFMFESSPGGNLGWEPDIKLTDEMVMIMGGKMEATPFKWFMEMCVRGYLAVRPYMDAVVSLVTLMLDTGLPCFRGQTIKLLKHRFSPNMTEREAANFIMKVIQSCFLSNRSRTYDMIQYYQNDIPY
# Chain of PI4KIIα (Q9BTU6 whole entry): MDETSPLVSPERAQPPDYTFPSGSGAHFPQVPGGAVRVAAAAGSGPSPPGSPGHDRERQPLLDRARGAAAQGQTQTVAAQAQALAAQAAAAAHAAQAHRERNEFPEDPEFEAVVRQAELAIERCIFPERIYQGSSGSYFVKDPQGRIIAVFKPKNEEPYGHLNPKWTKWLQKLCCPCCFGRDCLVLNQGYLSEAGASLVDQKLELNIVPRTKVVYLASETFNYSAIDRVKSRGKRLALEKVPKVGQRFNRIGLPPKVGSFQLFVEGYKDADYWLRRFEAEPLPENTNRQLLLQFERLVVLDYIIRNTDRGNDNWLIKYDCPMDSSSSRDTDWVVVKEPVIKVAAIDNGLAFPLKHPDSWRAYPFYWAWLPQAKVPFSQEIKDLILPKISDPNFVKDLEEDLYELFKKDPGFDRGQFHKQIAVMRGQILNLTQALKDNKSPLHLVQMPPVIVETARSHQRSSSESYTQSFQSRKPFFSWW
# Chain of PI4P5KIα (Homo sapiens, UniProt Q99755) (Q99755 whole entry): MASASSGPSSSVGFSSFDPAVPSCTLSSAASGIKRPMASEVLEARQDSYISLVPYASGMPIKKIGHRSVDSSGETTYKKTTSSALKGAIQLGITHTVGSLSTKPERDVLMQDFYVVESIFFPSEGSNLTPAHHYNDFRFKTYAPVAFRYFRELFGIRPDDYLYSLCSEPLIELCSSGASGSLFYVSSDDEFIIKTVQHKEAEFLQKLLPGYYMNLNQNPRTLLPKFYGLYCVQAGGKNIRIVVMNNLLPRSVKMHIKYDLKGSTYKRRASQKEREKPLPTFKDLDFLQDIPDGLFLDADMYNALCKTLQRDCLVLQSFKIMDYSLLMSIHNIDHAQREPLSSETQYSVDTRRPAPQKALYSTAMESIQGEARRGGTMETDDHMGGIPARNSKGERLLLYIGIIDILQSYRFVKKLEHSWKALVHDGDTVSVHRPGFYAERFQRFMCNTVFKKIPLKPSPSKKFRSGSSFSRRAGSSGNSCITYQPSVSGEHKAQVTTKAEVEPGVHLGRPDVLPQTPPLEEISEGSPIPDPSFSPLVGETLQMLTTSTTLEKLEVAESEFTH
compound,measurement,setting,value
CO[C@H]1C[C@@H]2CC[C@@H](C)[C@@](O)(O2)C(=O)C(=O)N2CCCC[C@H]2C(=O)O[C@H]([C@H](C)C[C@@H]2CC[C@@H](O)[C@H](OC)C2)CC(=O)[C@H](C)/C=C(\C)[C@@H](O)[C@@H](OC)C(=O)[C@H](C)C[C@H](C)/C=C/C=C/C=C/1C [rapamycin],% Foxp3+ cells (nutrient deprivation experiment),[1]; 18 hour activated CD4 T cells,25 % Foxp3^+
same,percentage of cells expressing Foxp3,[1],26.8±14.4%
same,"Foxp3 expression in control cultures, TCR signal deprived cultures subtracted",[1],28.6±9.0%
CC(C)C[C@H](NC(=O)[C@H](Cc1ccccc1)C[C@@H](O)[C@H](Cc1ccccc1)NC(=O)OC(C)(C)C)C(=O)N[C@@H](Cc1ccccc1)C(N)=O [L-685458],effect on Foxp3 expression (in words),[1],None of these detectably enhanced the expression of Foxp3
Cc1ccc([N+](=O)[O-])cc1S(=O)(=O)N(C)/N=C/c1cnc2ccc(Br)cn12 [PIK75],toxicity in the Foxp3 induction assay,[1]; over the duration of the assay,toxicity over the duration of our assay
Oc1cccc(-c2nc(N3CCOCC3)c3oc4ncccc4c3n2)c1 [PI-103],IC50,PI4KIIα,> 100000 nM
same,IC50,ATR,850 nM
same,IC50,PI4KIIIα,> 100000 nM
same,IC50,PI4P5KIα [2],> 100000 nM
same,increase in Foxp3 expressing cells over and above TCR deprivation alone,[1]; IC-87114 down to 0.01 μM,> 20%
same,effect on Foxp3 expression (in words),[1],strongly induced Foxp3
same,"Foxp3 expression in control cultures, TCR signal deprived cultures subtracted",[1],35.1±3.8%
same,IC50,PI3KC2α,~1000 nM
same,IC50,ATM,920 nM
NC(=O)c1ccc(-c2nc(-c3ccc4c(c3)OCO4)c(-c3ccccn3)[nH]2)cc1 [SB431542],effect on Foxp3 induction by PI3K/mTOR inhibitors,[1]; [4],had no effect
same,reduction of Foxp3 induction by TGFβ,[1]; [4],96%
O=c1[nH]c2ccccc2n1C1CCN(Cc2ccc(-c3nc4cc5nc[nH]c5cc4nc3-c3ccccc3)cc2)CC1 [Akti-1/2],effect on Foxp3 expression (in words),[1],enhanced Foxp3 expression
same,effect on Foxp3 expression (in words),[1]; listed as Akti 1/2,induces Foxp3 expression
COc1ccc2c(c1OC)N=C(NC(=O)c1cccnc1)N1CCN=C21 [PIK90],IC50,PI4KIIα,> 100000 nM
same,IC50,ATR,15000 nM
same,IC50,PI4KIIIβ,3100 nM
same,IC50,PI4P5KIα [3],> 100000 nM
same,IC50,PI4KIIIα,830 nM
same,IC50,DNA-PK,13 nM
same,IC50,PI3KC2β,64 nM
same,IC50,PI4P5KIα [2],> 100000 nM
same,IC50,mTORC1,1050 nM
same,effect on Foxp3 expression at 0.1 μM,[1]; 0.1 μM,strongly induced Foxp3
same,"Foxp3 expression in control cultures, TCR signal deprived cultures subtracted",[1],36.0±12.9%
same,IC50,PI3KC2α,47 nM
same,IC50,PI5P4KIIβ,> 100000 nM
same,IC50,ATM,610 nM
COC[C@H]1OC(=O)c2coc3c2[C@@]1(C)C1=C(C3=O)[C@@H]2CCC(=O)[C@@]2(C)C[C@H]1OC(C)=O [Wortmannin],percentage of cells expressing Foxp3,[1],17.3±5.3%
"O=c1cc(N2CCNCC2)oc2c(-c3ccccc3)cccc12 [Ly303511, 2-piperazinyl-8-phenyl-4H-1-benzopyran-4-one]",percentage of cells expressing Foxp3,[1],6.6±3.0%
O=C1NC(=O)/C(=C\c2ccc3nccnc3c2)S1 [SA-605240],effect on Foxp3 expression (in words),[1]; listed as AS-605240,affected Foxp3 only at concentrations far in excess of its IC50 for p110γ
